Measured values reported in US12558358B2 (UNIVERZITA PALACKEHO V OLOMOUCI, priority 2019, dated 2026).

Assays:
[1] = type: in vitro ADME; conditions: human, 2 μM
Experimental: (§1) This system is further referred to as RF-MS. Preparation of the lyophilized samples for the analysis is described in the sections dedicated to the individual methods. Lyophilized samples were dissolved in the mobile phase (95% water, 5% acetonitrile, 0.1% formic acid) with respective internal standards. The dissolved samples were aspired directly from 96-well plates into a 10 μL sample loop and passed through a C4 cartridge (Agilent Technologies) with solvent A (95% water, 0.01% formic acid, 5% acetonitrile) at a flow rate of 1.5 mL/minute for 3 seconds. After the desalting step, the analyte retained on the cartridge was eluted with solvent B (95% acetonitrile, 5% 0.01% formic acid) to the mass spectrometer at a flow rate of 0.4 mL/minute for 7 seconds. Mass spectrometry was carried out using electrospray ionization in the positive ion mode. Daughter ion peaks were identified using a multiple-reaction monitoring protocol.
Test compound (a final concentration of 2 μM) was incubated with human plasma (Transfusion Department, University Hospital Olomouc, Olomouc, Czech Republic) for 0, 15, 30, 60 and 120 min at 37° C. The reactions were stopped by addition of acetonitrile-methanol mixture (2:1). Samples were stored at −80° C. overnight and centrifuged (2811×g, 6 min, 4° C.). Supernatants were lyophilized.

[2] = test system: explanted suprachiasmatic nuclei (SCN) of mPer2Luc mice; assay: PER2::Luc rhythm in organotypic SCN explants (Example 3); type: cell-based, mouse
Experimental: amplitude of circadian expression of the PER2::Luc clock reporter in the explanted suprachiasmatic nuclei (SCN) of the hypothalamus, the central clock of mammals, of the transgenic mouse line Male and female mPer2Luc mice (strain B6.129S6-Per2tm1Jt/J, JAX, USA) (Yoo et al., 2004) were maintained in a light/dark cycle with 12 hours of light and 12 hours of darkness (LD12: 12), killed between 12:00 and 15:00, i.e. 6-9 hours after turning on the lights, by rapid cervical dislocation under isoflurane anesthesia, their brains were removed and 250 μm thick SCN slices in ice-cold HBSS medium were prepared using a vibratome (Leica, Wetzlar, Germany). Two explants containing SCN from each brain were prepared. Individual SCN explants were then placed on Millicell Culture Inserts (Merck, Darmstadt, Germany) inside 35 mm Petri dishes with test compound or DMSO vehicle in 1 ml air-buffered recording medium supplemented with 100 U/ml penicillin, 100 μg/ml streptomycin (Sigma-Aldrich, St. Luis, MO, USA), 1×GlutaMAX (ThermoFisher, Waltham, MA, USA), 5% fetal calf serum (Sigma) and 0.1 mM Luciferin-EF (Promega Madison, WI, USA). The dishes were sealed with vacuum Vaseline and glass coverslips and placed inside a LumiCycle (Actimetrics) for bioluminescence recording. Rhythm analysis was performed in Lumicycle Analysis software (Actimetrics).

[3] = in vitro; type: in vitro ADME; conditions: PAMPA, pH 7.4
Experimental: as §1
The parallel artificial membrane permeability assay (PAMPA) was performed using the Millipore MultiScreen filter MultiScreen-IP Durapore 0.45 μm plates and receiver plates (Merck Millipore) according to the manufacturer's protocol PC040EN00. […]
Calculations: The relative permeability log Pe was calculated as log Pe=log{Cx−ln(1−drugA/drugE)}, where C=(VA×VD)/{(VD+VA)×A×T}. […]

[4] = test system: cancer cell line A549; assay: Resazurin viability of A549 cells, pretreatment plus antineoplastics (Example 7); type: cell-based, human; conditions: pretreatment 100 μM, antineoplastics 3.3 μM, 72 incubation, FIG. 7
Experimental: Human cancer cell line A549 was maintained in standard cultivation medium DMEM with 10% fetal bovine serum. 1000 cells were seeded into the wells of 384-well plate in 30 microliters of RPMI medium. After 24 hours, dexamethasone (final concentration 100 nM) was added in order to synchronize circadian oscillator together with N-(furan-2-ylmethyl)-7H-purin-6-amin (final concentration 100 μM) or DMSO vehicle. After 12 hours, DMSO vehicle or the evaluated antineoplastics (the final concentration 3.3 μM) were added. The compounds were dosed by ECHO system, the DMSO solutions were 1000-times concentrated. After 72 incubation, 1000-times concentrated solution of resazurin in DMSO to a final concentration of 0.0125 mg/ml was added. Fluorescence was measured after 3-hour incubation. […] An equivalent cytotoxic effect can be therefore achieved by an application of lower dose of antineoplastics.

[5] = test system: NIH3T3 cells with mPer2-Luc reporter; assay: Circadian rhythm period and amplitude, NIH3T3 cells with Per2-Luc reporter (Example 2); type: cell-based, mouse
Experimental: Mouse embryonic fibroblasts NIH3T3 cells were grown in standard DMEM with 10% fetal calf serum. NIH3T3 cells were transfected with 1 μg of Per2-Luc reporter (Meng, 2009) using GeneJuice (Novagen) and selected under hygromycin. The cell line was clonally expanded and a single monoclonal cell line was used for further experiments. Cells were cultured in a 96-well plate in growth medium to 90+% confluence. Test compound or vehicle (DMSO) was applied to recording medium with 100 U/ml penicillin, 100 μg/ml streptomycin, 1×GlutaMAX (ThermoFisher, Waltham, MA, USA), 10% fetal calf serum (Sigma) and 0.1 mM Luciferin-EF (Promega Madison, WI, USA). Luminescence was recorded every hour for an additional 144 hours in a Luminoskan Ascent (ThermoFisher). Circadian rhythm analysis was performed using cosinor analysis. […] The concentration and level of other proteins, whose rhythmic expression is controlled by an oscillator in the brain and peripheral tissues (so-called clock-controlled genes), is also necessarily affected.

[6] = test system: retinal epithelium cells ARPE-19; type: cell-based; conditions: human, 72 h
Experimental: (§2) It is used for viability testing of eukaryotic cells. The effect of the compounds in several concentrations (maximum concentration of 100 microM and 3 three-fold dilutions) on viability of skin fibroblasts BJ and retinal epithelium cells ARPE-19 was evaluated after 72 hour treatment. The cells were maintained in standard cultivation medium DMEM with 10% fetal bovine serum. 5000 cells were seeded into 96-well plates 24 hours prior to the addition of test compound. DMSO vehicle was used as a negative control. After 72 hours, 1000-times concentrated solution of resazurin in DMSO was added to the cells zo the final concentration of 0.0125 mg/ml. Fluorescence (ex=570 nm, em=610 nm) was measured after 1 hour (ARPE-19) or 3 hours (BJ) of incubation. IC50 values were calculated from dose response curves using drc library for R programming environment.

[7] = test system: skin fibroblasts BJ; type: cell-based; conditions: human, 72 h
Experimental: as §2

[8] = test system: Human fibroblasts BJ; assay: Long-term cultivation of BJ fibroblasts, cell count (Example 9); type: cell-based; conditions: 12.5-100 µM, 12th day, FIG. 8
Experimental: Human fibroblasts BJ were maintained in standard cultivation medium DMEM with 10% fetal bovine serum. The experiment was performed in 24-well plates. 10,000 cells in DMEM medium with 10% fetal bovine serum were seeded into the wells. The test compound was added to a final concentration in the range of 12.5-100 µM after 24 hours. DMSO vehicle was used as a negative control. In order to obtained better idea of test variability, 8 control wells were used (columns A and D). The cultivation medium containing either test compound or DMSO was replaced twice a week. The cells were trypsinized on the 12th day and counted on Coulter Z2 apparatus.

[9] = in vitro; type: in vitro ADME
Experimental: as §1
Caco-2 (American Tissue Type Collection) a MDR1-MCDK (Netherlands Cancer Institute) were cultured in DMEM medium with 10% fetal bovine serum. […]
Calculations: The apparent permeability coefficient was calculated as Papp=(dQ/dt)/(C0×A), where dQ/dt is the rate of permeation of the drug across the cell monolayer, C0 is the donor compartment concentration at time t=0 and A is the area of the cell monolayer. […]

[10] = test system: U2OS cells with mBmal1-Luc reporter; assay: Combination with other chronotherapeutics, mBmal1-Luc U2OS cells (Example 6); type: cell-based, human
Experimental: (§3) Human osteosarcoma U2OS cells were grown in standard DMEM with 10% fetal calf serum. U2OS cells were transduced with lentiviral particles containing the reporter pLV6-Bmal1-Luc (S. Brown, Addgene plasmid #68833) and selected under Blasticidin. The cell line was clonally expanded and a single monoclonal cell line was used for further experiments. Cells were cultured in a 384-well plate in growth medium to 90+% confluence. Test compounds or vehicle (DMSO) were applied to recording medium with 100 U/ml penicillin, 100 μg/ml streptomycin, 1×GlutaMAX (ThermoFisher, Waltham, MA, USA), 10% fetal calf serum (Sigma) and 0.1 mM Luciferin-EF (Promega Madison, WI, USA). Luminescence was recorded every hour for additional 144 hours in Luminoskan Ascent (ThermoFisher). Circadian rhythm analysis was performed by cosinor analysis.

[11] = test system: U2OS cells transduced by transcriptional circadian reporter mBmal1-Luc; assay: Circadian rhythm period, U2OS cells with Bmal1-Luc reporter (Example 1); type: cell-based, human; conditions: luminescence 144 hours, cosinor analysis, FIG. 1
Experimental: Human osteosarcoma U2OS cells were grown in standard DMEM with 10% fetal calf serum. U2OS cells were transduced with lentiviral particles containing the reporter pLV6-Bmal1-Luc (S. Brown, Addgene plasmid #68833) and selected under Blasticidin. The cell line was clonally expanded and a single monoclonal cell line was used for further experiments. Cells were cultured in a 384-well plate in growth medium to 90+% confluence. Test compound or vehicle (DMSO) was applied to recording medium with 100 U/ml penicillin, 100 μg/ml streptomycin, 1× GlutaMAX (ThermoFisher, Waltham, MA, USA), 10% fetal calf serum (Sigma) and 0.1 mM Luciferin-EF (Promega Madison, WI, USA). Luminescence was recorded every hour for an additional 144 hours in Luminoskan Ascent (ThermoFisher). Circadian rhythm analysis was performed using cosinor analysis.

[12] = test system: Bmal1 gene expression (mBmal1-Luc reporter); assay: mBmal1-Luc reporter expression in U2OS cells (Example 4); type: cell-based, human; conditions: first 5-15 hours after application, FIG. 4
Experimental: as §3, with “Test compound” for “Test compounds”, “(DMSO) was” for “(DMSO) were”, “(ThermoFisher).” for “(ThermoFisher). Circadian rhythm analysis was performed by cosinor analysis.”

[13] = test system: Per2 gene expression (mPer2-Luc reporter); assay: mPer2-Luc reporter expression in NIH3T3 cells (Example 5); type: cell-based, mouse; conditions: NIH3T3, first 1-12 hours after application, FIG. 5
Experimental: Mouse embryonic fibroblasts NIH3T3 cells were grown in standard DMEM with 10% fetal calf serum. NIH3T3 cells were transfected with 1 μg of Per2-Luc reporter (Meng, 2009) using GeneJuice (Novagen) and selected under hygromycin. The cell line was clonally expanded and a single monoclonal cell line was used for further experiments. Cells were cultured in a 96-well plate in growth medium to 90+% confluence. Test compound or vehicle (DMSO) was applied to recording medium with 100 U/ml penicillin, 100 μg/ml streptomycin, 1×GlutaMAX (ThermoFisher, Waltham, MA, USA), 10% fetal calf serum (Sigma) and 0.1 mM Luciferin-EF (Promega Madison, WI, USA). Luminescence was recorded every hour for additional 144 hours in Luminoskan Ascent (ThermoFisher).

Plasma stability (120 min) [% intact] [1]: 91 % intact | Papp at 18 h, 20 AM [3]: 5.01 ×10⁻⁶ cm/s | IC10 [6]: > 100 µM | IC10 [7]: > 100 µM | Papp at 1 h, 10 μM ([9]; dog, MDCK-MDR1, pH 7.4): 315 ×10⁻⁶ cm/s | Papp at 2 h, 10 μM ([9]; human, Caco-2, pH 7.4): 76 ×10⁻⁶ cm/s
Compound: c1coc(CNc2ncnc3nc[nH]c23)c1 [N-(furan-2-ylmethyl)-7H-purin-6-amine]
circadian rhythm period ([2]; FIG. 3B): prolongs the circadian rhythm period | amplitude ([2]; FIG. 3C): modulates the amplitude | activity of antineoplastics on A549 viability after pretreatment [4]: increases activity of antineoplastics | amplitude of circadian expression of mPer2-Luc ([5]; NIH3T3, FIG. 2): modulates the amplitude | circadian rhythm period ([5]; NIH3T3 mPer2-Luc, luminescence 144 hours, cosinor analysis, FIG. 2): prolongs the circadian rhythm period | cell growth (cell count) [8]: did not have a negative effect on cell growth | effect on the length of the circadian period in combination with compounds that extend the circadian period ([10]; 50 μM together with PF670, T0901317, KL001, rosiglitazon, SR9009, FIG. 6A-6E): additive or even synergistic effect | effect on the period when added to harmine ([10]; 50 μM together with harmine, FIG. 6F): caused a decrease of the period | circadian rhythm period [11]: extends the circadian rhythm period | Bmal1 gene expression [12]: affects Bmal1 gene expression | Per2 gene expression [13]: regulates Per2 gene expression
